According to US9328085B2, “Heterocyclic compounds and expansion agents for hematopoietic stem cells” (NISSAN CHEMICAL INDUSTRIES, LTD., priority 2009, dated 2016):

How the values were obtained:
CD34^+CD38^− cells = test: Expansion of CD34+CD38- cells using human cord blood-derived CD34+ cells (Assay Example 1); format: cell-based; conditions: for Expansion efficiency (CD34^+CD38^− cells): 100 ng/mL SCF, 7 days, based on the number of CD34^+CD38^− cells in the absence of compound; for Comparison with TPO: 3 μg/mL compound vs TPO 10 ng/mL, CD34^+CD38^− cells
Method: (§1) Human cord blood-derived CD34^+ cells were purchased from Lonza and plated on a 24-well plate (Corning) (10000 cells/1 mL/well). As the culture medium, StemSpan SFEM (StemCell Technologies) containing 100 ng/mL SCF (Wako Pure Chemical Industries) was used, and one of Compounds No. 1 to 72 dissolved in dimethyl sulfoxide was added in an amount of 0.1% (v/v) to a final concentration of 1 or 3 μg/mL. As a positive control, TPO (PeproTech) was used at a final concentration of 10 ng/mL.
(§2) After the cells were incubated in liquid culture at 37° C. for 7 days in a CO2 incubator (5% CO2), the number of viable cells was counted by trypan blue assay. The number of CD34^+CD38^− cells was calculated as follows. After the incubation, the cells in the liquid culture was stained with a CD34 antibody (APC, Becton, Dickinson and Company) and a CD38 antibody (PE, Becton, Dickinson and Company), then washed with PBS(−) containing 2% (v/v) FBS and stained with propidium iodide (Sigma-Aldrich Japan) added to a final concentration of 5 μg/mL. The stained cells were analyzed with a BD FACSCANTO™ II flow cytometer (Becton, Dickinson and Company) to determined the proportions of CD34^+ cells and CD34^+CD38^− cells, which was multiplied by the number of viable cells to calculate the numbers of CD34^+ cells and CD34^+CD38^− cells.
(§3) The expansion efficiencies in the presence of 1 or 3 μg/mL of compounds based on the number of CD34^+ cells in the absence of them are shown in Tables 3-1 and 3-2 on a scale of A for expansion efficiencies of 6 or greater, B for expansion efficiencies of at least 4 and less than 6, and C for expansion efficiencies of at least 2 and less than 4. The expansion efficiencies in the presence of 1 or 3 μg/mL of compounds based on the number of CD34^+CD38^− cells in the absence of them are shown in Tables 4-1 and 4-2 on a scale of A for expansion efficiencies of 10 or greater, B for expansion efficiencies of at least 5 and less than 10, and C for expansion efficiencies of at least 3 and less than 5. Further, in Table 3, the compounds with an expansion efficiency twice or more greater than that of TPO are marked with O.

CD34^+ cells = test: Expansion of CD34+ cells using human cord blood-derived CD34+ cells (Assay Example 1); format: cell-based; conditions: 100 ng/mL SCF, 7 days, based on the number of CD34^+ cells in the absence of compound
Method: as §1, §2, §3

Structure (SMILES) | Expansion efficiency (CD34^+CD38^− cells) (CD34^+CD38^− cells; 3 μg/mL compound) | Expansion efficiency (CD34^+ cells) (CD34^+ cells; 3 μg/mL compound) | Comparison with TPO (CD34^+CD38^− cells) | Expansion efficiency (CD34^+ cells) (CD34^+ cells; 1 μg/mL compound) | Expansion efficiency (CD34^+CD38^− cells) (CD34^+CD38^− cells; 1 μg/mL compound)
CC(=NNC(=O)c1ccc(C(=O)NCc2ccc(C(=O)NCc3ccccn3)cc2)s1)c1csc(-c2ccc(Br)cc2)c1O [Compound No. 6] | C (C for expansion efficiencies of at least 3 and less than 5) | – | – | – | –
C/C(=N\NC(=O)c1ccc(C(=O)NCc2ccc(S(=O)(=O)NCCOCCO)cc2)s1)c1csc(-c2ccc(Cl)c(Cl)c2)c1O [compound 1] | A (A for expansion efficiencies of 10 or greater) | C (C for expansion efficiencies of at least 2 and less than 4) | – | – | –
CC(=NNC(=O)c1ccc(C(=O)NCc2ccc(S(=O)(=O)NCCOCCO)cc2)s1)c1csc(-c2ccc(C(C)(C)C)cc2)c1O [compound 2] | A (A for expansion efficiencies of 10 or greater) | B (B for expansion efficiencies of at least 4 and less than 6) | – | – | –
CC(=NNC(=O)c1ccc(C(=O)NCc2ccc(S(=O)(=O)NCCOCCO)cc2)s1)c1csc(-c2ccc(Br)cc2)c1O [compound 3] | A (A for expansion efficiencies of 10 or greater) | C (C for expansion efficiencies of at least 2 and less than 4) | – | – | –
CC(=NNC(=O)c1ccc(C(=O)NCc2ccc(C(=O)NCc3ccccn3)cc2)s1)c1csc(-c2ccc(Cl)c(Cl)c2)c1O [compound 4] | B (B for expansion efficiencies of at least 5 and less than 10) | C (C for expansion efficiencies of at least 2 and less than 4) | – | – | –
CC(=NNC(=O)c1ccc(C(=O)NCc2ccc(C(=O)NCc3ccccn3)cc2)s1)c1csc(-c2ccc(C(C)(C)C)cc2)c1O [compound 5] | A (A for expansion efficiencies of 10 or greater) | B (B for expansion efficiencies of at least 4 and less than 6) | – | – | –
CC(=NNC(=O)c1ccc(C(=O)NCc2ccc(C(=O)NCc3ccco3)cc2)s1)c1csc(-c2ccc(Cl)c(Cl)c2)c1O [compound 7] | B (B for expansion efficiencies of at least 5 and less than 10) | C (C for expansion efficiencies of at least 2 and less than 4) | – | – | –
CC(=NNC(=O)c1ccc(C(=O)NCc2ccc(C(=O)NCc3ccco3)cc2)s1)c1csc(-c2ccc(C(C)(C)C)cc2)c1O [compound 8] | B (B for expansion efficiencies of at least 5 and less than 10) | – | – | – | –
CC(=NNC(=O)c1ccc(C(=O)NCc2ccc(C(=O)NCc3ccco3)cc2)s1)c1csc(-c2ccc(Br)cc2)c1O [compound 9] | B (B for expansion efficiencies of at least 5 and less than 10) | C (C for expansion efficiencies of at least 2 and less than 4) | – | – | –
CC(=NNC(=O)c1ccc(C(=O)NCc2ccc(C(=O)NCC3CCCO3)cc2)s1)c1csc(-c2ccc(Cl)c(Cl)c2)c1O (stereo not shown) [compound 10] | A (A for expansion efficiencies of 10 or greater) | B (B for expansion efficiencies of at least 4 and less than 6) | – | – | –
CC(=NNC(=O)c1ccc(C(=O)NCc2ccc(C(=O)NCC3CCCO3)cc2)s1)c1csc(-c2ccc(C(C)(C)C)cc2)c1O (stereo not shown) [compound 11] | A (A for expansion efficiencies of 10 or greater) | A (A for expansion efficiencies of 6 or greater) | – | – | –
CC(=NNC(=O)c1ccc(C(=O)NCc2ccc(C(=O)NCC3CCCO3)cc2)s1)c1csc(-c2ccc(Br)cc2)c1O (stereo not shown) [compound 12] | A (A for expansion efficiencies of 10 or greater) | A (A for expansion efficiencies of 6 or greater) | – | – | –
CC(=NNC(=O)c1ccc(C(=O)NCc2ccc(C(=O)NCCO)cc2)s1)c1csc(-c2ccc(Cl)c(Cl)c2)c1O [compound 13] | A (A for expansion efficiencies of 10 or greater) | A (A for expansion efficiencies of 6 or greater) | ∘ | – | –
CC(=NNC(=O)c1ccc(C(=O)NCc2ccc(C(=O)NCCO)cc2)s1)c1csc(-c2ccc(C(C)(C)C)cc2)c1O [compound 14] | – | – | – | A (A for expansion efficiencies of 6 or greater) | A (A for expansion efficiencies of 10 or greater)
CC(=NNC(=O)c1ccc(C(=O)NCc2ccc(C(=O)NCCO)cc2)s1)c1csc(-c2ccc(Br)cc2)c1O [compound 15] | A (A for expansion efficiencies of 10 or greater) | A (A for expansion efficiencies of 6 or greater) | ∘ | – | –
CC(=NNC(=O)c1ccc(C(=O)NCc2ccc(C(=O)NCCN3CCOCC3)cc2)s1)c1csc(-c2ccc(Cl)c(Cl)c2)c1O [compound 19] | A (A for expansion efficiencies of 10 or greater) | C (C for expansion efficiencies of at least 2 and less than 4) | – | – | –
CC(=NNC(=O)c1ccc(C(=O)NCc2ccc(C(=O)NCCN3CCOCC3)cc2)s1)c1csc(-c2ccc(C(C)(C)C)cc2)c1O [compound 20] | A (A for expansion efficiencies of 10 or greater) | B (B for expansion efficiencies of at least 4 and less than 6) | ∘ | – | –
CC(=NNC(=O)c1ccc(C(=O)NCc2ccc(C(=O)NCCN3CCOCC3)cc2)s1)c1csc(-c2ccc(Br)cc2)c1O [compound 21] | A (A for expansion efficiencies of 10 or greater) | A (A for expansion efficiencies of 6 or greater) | ∘ | – | –
CC(=NNC(=O)c1ccc(C(=O)NCc2ccc(C(=O)NCCN(CCO)CCO)cc2)s1)c1csc(-c2ccc(Cl)c(Cl)c2)c1O [compound 22] | A (A for expansion efficiencies of 10 or greater) | A (A for expansion efficiencies of 6 or greater) | ∘ | – | –
CC(=NNC(=O)c1ccc(C(=O)NCc2ccc(C(=O)NCCN(CCO)CCO)cc2)s1)c1csc(-c2ccc(C(C)(C)C)cc2)c1O [compound 23] | A (A for expansion efficiencies of 10 or greater) | A (A for expansion efficiencies of 6 or greater) | ∘ | – | –
CC(=NNC(=O)c1ccc(C(=O)NCc2ccc(C(=O)NCCN(CCO)CCO)cc2)s1)c1csc(-c2ccc(Br)cc2)c1O [compound 24] | A (A for expansion efficiencies of 10 or greater) | A (A for expansion efficiencies of 6 or greater) | ∘ | – | –
CC(=NNC(=O)c1ccc(C(=O)NCc2ccc(C(=O)NCCN3CCN(C(=O)OC(C)(C)C)CC3)cc2)s1)c1csc(-c2ccc(Br)cc2)c1O [compound 27] | C (C for expansion efficiencies of at least 3 and less than 5) | – | – | – | –
CC(=NNC(=O)c1ccc(C(=O)NCc2ccc(C(=O)NCCN3CCNCC3)cc2)s1)c1csc(-c2ccc(Cl)c(Cl)c2)c1O [compound 28] | A (A for expansion efficiencies of 10 or greater) | B (B for expansion efficiencies of at least 4 and less than 6) | – | – | –
CC(=NNC(=O)c1ccc(C(=O)NCc2ccc(C(=O)NCCOCCO)cc2)nc1)c1csc(-c2ccc(C(C)(C)C)cc2)c1O [compound 47] | B (B for expansion efficiencies of at least 5 and less than 10) | – | – | – | –
CC(=NNC(=O)c1cccc(C(=O)NCc2ccc(C(=O)NCCOCCO)cc2)n1)c1csc(-c2ccc(C(C)(C)C)cc2)c1O [compound 50] | C (C for expansion efficiencies of at least 3 and less than 5) | – | – | – | –
